What all share (type): cell-based
The test system of assay [1] is MCL1 protein in OCI-AML3 cells. The experiment in a line: Western blot, AML cell line OCI-AML3. The following applies: 50 nM. As for the experimental part:
(§1) Cytotoxic cancer cell lines HCC70 and TOV21G, and cytostatic cancer cell lines T47D and COV318 were seeded in wells of a six-well dish at a density of 1×10^6 cells/well and allowed to adhere overnight. Cells were then treated with 50 nM of Compound 1 for 16 or 24 hours, or with DMSO (0 hours) representing a negative control. Cells were harvested and placed on ice, and resuspended in RIPA lysis buffer supplemented with protease and phosphatase inhibitors. Clarified lysates prepared with 4×LSD running buffer and boiled at 95° C. for 5 minutes. Equivalent amounts of sample (10 μg total protein) were run on a 4-12% Bis-Tris gel and transferred to a PDVF membrane for Western blotting using standard Western blotting protocols. Membranes were blocked with Licor TBS blocking buffer then probed with antibodies for BCL-XL, BCL-2, MCL1, BID, and GAPDH visualized using and Odyssey imager (FIGS. 23A and 23D).
(§2) We next explored the expression of MCL1, BCL-XL and BCL2 in four different AML cell lines. MV411, OCI-AML3 and KG1 cells were separately grown and prepared as described in Example 2 for Western blotting, using antibodies specific for BCL2 (FIG. 24A), BCL-XL, MCL-1 and tubulin as an internal control (FIG. 24B).

The subject of assay [2] is MCL1 protein in OC1M1 cells. In words: Western blot, AML cell line OC1M1. Particulars: OC1M1 (high BCL-XL); 50 nM. As for the experimental part: as §1, §2
On the technique in general: Immunoblotting shows a protein as a band on a membrane.

The subject of assay [3] is gene expression in MDA-MB468 cells. In words: Gene expression profiling via RNA-seq (DESeq2, linear model), MDA-MB468. The following applies: four hours, JQ1 125 nM, Compound 1 25 nM. As for the experimental part: In addition, we compared the ability of JQ1 alone, Compound 1 alone, and a combination of JQ1 and Compound 1 to modify expression of various genes in two breast cancer cell lines. Two triple-negative breast cancer cell lines (HCC70 and MDA-MB468) were tested. The cell lines were treated with JQ1, Compound 1, the JQ1/Compound 1 combination, or DMSO for four hours, after which gene expression profiling via RNA-seq was performed. JQ1 was administered to the cells at a 125 nM final concentration in both single agent and combination experiments. Compound 1 was administered to the cells at a 25 nM final concentration in both single agent and combination experiments. Each experiment was performed in triplicate. One replicate of MDA-MB-468 treated with single-agent JQ1 was excluded from further analysis due to quality.
We employed DESeq2 (Love et al., Genome Biology, 15(12):550, 2014) to identify changes in gene expression due to the JQ1, Compound 1, and JQ1-Compound 1 combination treatment compared to the control DMSO condition based on the RNA-seq data. Genes resulting in a p-value below 0.01 and an absolute logFoldChange above 0.5 were considered to be differentially expressed. […] The same is true for 1459 of 2414 genes in MDA-MB468.
To identify the genes whose expression is impacted synergistically by the drug combination, we modeled the effect of each drug treatment on expression using a linear model. The expression of each gene after the combination treatment can be thought of as the combined impact of Compound 1, JQ1, and any synergistic interaction between the drug treatments on baseline gene expression. A linear model used to describe this relationship could therefore be represented as:
Gene Expression after combination treatment=Baseline Expression+Compound 1 effect+JQ1 effect+Combination effect (Synergistic Impact)
By fitting the expression data for each gene using this model, we were able to evaluate the effect of each treatment, and identify cases where a synergistic interaction between Compound 1 and JQ1 impacts final gene expression. After fitting the linear model to each gene, the weight and p-value of each term can be evaluated. The combination term's weight signifies the mean change resulting from a synergetic impact on expression, with a negative weight indicating synergistic downregulation. Its associated p-value represents the probability that the combination term is not relevant to final gene expression. Using this approach, we identified 1806 genes in HCC70 and 2205 genes in MDA-MB468 whose expression change in the combination treatment was synergistic and whose associated p-value was less than a threshold cutoff of 0.01. The expression of these synergistic genes could not be explained by an additive effect of Compound 1 and JQ1 alone.

Assay [4] concerns homologous recombination deficiency / carboplatin sensitivity genes in TOV21G cells. In words: Nanostring PanCancer Pathways mRNA, TOV21G. The following applies: 50 nM, 16 hours. How it is done: Ovarian Cell lines OvCar3, TOV21G, A2780 and COV318 were plated at 500,000 cells/well in a 6-well plate the day before treatment. The next day the cells were treated with vehicle or 50 nM Compound 1 for 0, 6, or 16 hours after which cells were harvested and total RNA collected using RNeasy mini kit (Qiagen). Changes in mRNA between samples were analyzed with Nanostring™ PanCancer Pathways Panels specifically analyzing genes related to homologous recombination deficiency and carboplatin sensitivity (ie. BRCA1, BRCA2, Rad51, ATM, ATR, MSH2, MSH6). Nanostring signal intensities were first normalized to housekeeping genes across all cell lines, and then normalized to the 0 hour timepoint within a cell line.

Consider `CN(C)C/C=C/C(=O)Nc1ccc(C(=O)N[C@@]2(C)CCC[C@@H](Nc3ncc(Cl)c(-c4c[nH]c5ccccc45)n3)C2)nc1` [Compound 1, N-((1S,3R)-3-(5-chloro-4-(1H-indol-3-yl)pyrimidin-2-ylamino)-1-methylcyclohexyl)-5-((E)-4-(dimethylamino)but-2-enamido)picolinamide], for which the “MCL1 protein level (Western blot)” value in assay [1] is listed as “significant reduction in MCL1”; in assay [2], “little effect”. Also, the “Average Expression (TPM) FOXC1” value in assay [3] (DMSO 33.731) came out at 25.556 TPM. Also, the “Average Expression (TPM) GATA3” value in assay [3] (DMSO 34.244) was determined as 21.773 TPM. Also, in assay [3] (DMSO 145.88), the “Average Expression (TPM) TGIF1” value is 134.08 TPM. For the same compound, the “mRNA of genes related to homologous recombination deficiency and carboplatin sensitivity, all genes except Rad51 (BRCA1, BRCA2, ATM, ATR, MSH2, MSH6)” value in assay [4] was “downregulated”.

(Values after patent US20200113902A1, “COMPOSITIONS AND METHODS FOR TREATING CANCERS WITH COVALENT INHIBITORS OF CYCLIN-DEPENDENT KINASE 7 (CDK7)” (Syros Pharmaceuticals, Inc., priority 2017, published 2020).)
